Assay results reported in US20100160623A1, “CYCLODEXTRIN INCLUSION COMPLEXES AND METHODS OF PREPARING SAME” (CARGILL, INCORPORATED, priority 2006, published 2010).
“Also recorded” adds a separate entry of the source. Each block holds one compound with its values, some of them ahead of it. Peptide text beside a SMILES is read from it.

Tests used:
[1] = approximate class bounds given as e.g.; cited from earlier work
[2] = color stability of red 40 in vitamin fortified beverage exposed to light (Examples 39-40); format: physicochemical; conditions: south facing window, exposure to light
Source text: The mixture is returned to the original container and sealed. The sealed bottle is place in a south facing window for 5-6 weeks or until color changes are noted. Excess beverage is stored refrigerated in glass.

[3] = stabilization of citral to sunlight, off-notes by SPME GC/TOF-MS (Example 40A); format: physicochemical
Source text: The encapsulated citral products of Example 19 were studied by exposure to summer sun for 7 days as in the above example, but with the goal of monitoring thermal and photo oxidation products using two different concentrations of cyclodextrins. […] The citral complexes were studied at two different concentrations and were designed to deliver a constant citral level when used at 0.1 wt % or 0.2 wt % in acidic beverage base consisting of 10% sucrose and 0.5% citric acid. A 0.1 wt % citral in ethanol was used as a control. 500 ml of each sample was prepared and divided into six (6) four (4) oz samples with no allowed headspace and sealed. Analysis was preformed using SPME and a LECO Pegasus III GC/TOF-MS as previously reported; samples were analyzed in triplicate using a “Latin Square” sampling protocol.

[4] = stabilization of citral in citric acid solution with added uncomplexed cyclodextrin (Example 20); format: physicochemical; conditions: 0.1 or 0.2 wt % cyclodextrin, 40 or 90 degrees F., 18-48 hours
Protocol: Citral (natural citral, SAP No. 921565, Lot No. 10000223137, available from Citrus & Allied) was cut in ethanol and diluted in citric acid to obtain a desired flavor level (e.g., 3 mL (1% citral in EtOH) per 2 L 0.6% citric acid; designated as “control” or “control freshly made” in Table 2). […] The raw area counts of various forms of citral or character-impact citrus flavor compounds (i.e., neral, geranial, and citral total, the sum of neral and geranial), and a variety of other compounds, including common citrus flavor off-note chemicals (e.g., carveol, p-cymene or p-cymene-8-ol, p,a-dimethyl styrene, mentha-1,5-dien-8-ol 1, and mentha-a,5-dien-8-ol 2) and chlorocyclohexane internal standard (designated as “CCH int std” in Table 2) were measured for each permutation of the experiment, as shown in Table 2. As used herein, the term “raw area counts” is used to refer to the area under the curve of a corresponding portion of a gas chromatogram when the samples are analyzed using a gas chromatography-mass spectrometry analysis, namely, a PEGASUS II Time-of-flight mass spectrometer (TOF-MS; available from LECO Corp., St. Joseph, Mich.). The chlorocyclohexane internal standard was included at 10 ppm per beverage to attempt to normalize the raw area counts of the other compounds of interest.

Compound: CC1=C(O)C(=O)C(C)O1 (centres unmarked) [furaneol, 4-hydroxy-2,5-dimethyl-3(2H) furanone]
log(P) value (class of guest) [1]: less than about 1 but greater than zero

color stability (red 40) [2]: superior color stability
color stability (red 40) ([2]; listed as hydroxyl propyl β-cyclodextrin): best
Compound: hydroxypropyl-β-cyclodextrin
preventing flavor offnotes, compared with β-cyclodextrin [3]: less effective than β-cyclodextrin in preventing flavor offnotes

Compound: COC(=O)[C@H](Cc1ccccc1)NC(=O)[C@@H](N)CC(=O)O [aspartame] (H-Asp-Phe-OMe)
log(P) value (class of guest) [1]: less than about 1 but greater than zero

Compound: OC[C@H]1O[C@@H]2O[C@H]3[C@H](O)[C@@H](O)[C@@H](O[C@H]4[C@H](O)[C@@H](O)[C@@H](O[C@H]5[C@H](O)[C@@H](O)[C@@H](O[C@H]6[C@H](O)[C@@H](O)[C@@H](O[C@H]7[C@H](O)[C@@H](O)[C@@H](O[C@H]8[C@H](O)[C@@H](O)[C@@H](O[C@H]1[C@H](O)[C@H]2O)O[C@@H]8CO)O[C@@H]7CO)O[C@@H]6CO)O[C@@H]5CO)O[C@@H]4CO)O[C@@H]3CO [β-cyclodextrin]
amount of citral in the solution vs control [4]: increased the amount of citral in the solution
amount of off-notes formed vs control [4]: off-note formation is inhibited; also recorded: decreased the amount of off-notes formed

Compound: OC[C@H]1O[C@@H]2O[C@H]3[C@H](O)[C@@H](O)[C@@H](O[C@H]4[C@H](O)[C@@H](O)[C@@H](O[C@H]5[C@H](O)[C@@H](O)[C@@H](O[C@H]6[C@H](O)[C@@H](O)[C@@H](O[C@H]7[C@H](O)[C@@H](O)[C@@H](O[C@H]1[C@H](O)[C@H]2O)O[C@@H]7CO)O[C@@H]6CO)O[C@@H]5CO)O[C@@H]4CO)O[C@@H]3CO [α-cyclodextrin]
amount of off-notes formed vs control [4]: off-note formation is inhibited

color stability (red 40) [2]: degrades upon exposure to light
Compound: COc1cc(S(=O)(=O)[O-])c(C)cc1N=Nc1c(O)ccc2cc(S(=O)(=O)[O-])ccc12.[Na+].[Na+] [red 40 color]

Compound: CCc1occc(=O)c1O [ethyl maltol]
log(P) value (class of guest) [1]: less than about 1 but greater than zero

Compound: CSC [dimethyl sulfide]
log(P) value (class of guest) [1]: less than about 1 but greater than zero
